Tested on: S. lycopersicum cv. Micro-Tom
Assay: Stomatal conductance (LI-6400XT) after ABA treatment in tomato
Type: in vivo, Solanum lycopersicum
Conditions: 500 μM in DMSO (0.1%) applied one hour before ABA (100 μM), compared to ABA alone (FIG. 6)
Description: FIG. 6 is a boxplot showing the distribution of tomato (S. lycopersicum cv. Micro-Tom) stomatal conductance (mmol/m^2/s) measurements taken via LI-6400XT, plotted by treatment. Plants treated with strigolactone molecule MBS-127 prior to treatment with abscisic acid (ABA) show increased stomatal conductance, as measured by gas exchange with the LI-6400XT, compared to plants treated with ABA alone. Stars indicate significant differences relative to ABA (*: adjusted P<0.05, **: adjusted P<0.01; p-values were adjusted for multiple-hypothesis testing using a Bonferroni correction).
An early response and critical component of abiotic stress response signaling in plants is the production and transport of the phytohormone abscisic acid (ABA) (Kuromori, T., et al., “ABA Transport and Plant Water Stress Responses,” Trends in Plant Science (2018) Vol. 23 (6), pp. 513-522). […]

## COC(=O)/C=C/OC1C=C(C)C(=O)O1 (stereo not shown) [MBS-127, 3-(4-Methyl-5-oxo-2,5-dihydro-furan-2-yloxy)-acrylic acid methyl ester]
  leaf (stomatal) conductance after ABA: protect against the drought stress response related reduction in leaf conductance induced by ABA

Reference: US20230406821A1, “STRIGOLACTONE DERIVATIVES” (Plant Response, Inc., priority 2017, published 2023)
